Data reported in US20010051191A1, “Composition and method for treating non-bacterial cystitis” (priority 2000, published 2001).

Columns and labels:
[1] = Tests of bioavailability of quercetin alone; format: in vivo; settings: transmural intestinal absorption relatively low
[2] = system: chronic interstitial cystitis syndromes; settings: quercetin alone; cited from earlier work
[3] = system: patients without positive bacterial cultures localized to the prostatic fluid; experiment: Example II: double blind placebo-controlled study using 30 patients; format: in vivo
Procedure: A double blind study using 30 patients without positive bacterial cultures localized to the prostatic fluid are enrolled in a double blind study. Seventeen of the patients receive a composition comprised of quercetin in amount of 500 milligrams, bromelin in an amount of 10 milligrams, and papain in an amount of 10 milligrams as the active ingredients thereof. After a randomized study is completed, an additional fifteen patients are treated in an open label study with only the […]. […] The mean symptom score improves from 21.0 to 13.1 in the group receiving quercetin, but from 20.2 to 18.8 in the placebo group. This represents an improvement of 35%. In those patients which receive only the quercetin, without the papain and bromelin, with obtainable secretions, the white blood cell count in the decreases from 16.8 to 5.3, versus a decrease from 13.1 to 8.3 in the placebo patients.

O=c1c(O)c(-c2ccc(O)c(O)c2)oc2cc(O)cc(O)c12 [quercetin]
bioavailability [1]: does not have a high bioavailability
symptomatic response of patients [2]: significant
mean symptom score, after treatment ([3]; end value of the group): 13.1
improvement of mean symptom score ([3]; human, in vivo): 35%
white blood cell count in secretions, after treatment ([3]; patients with obtainable secretions, end value): 5.3
white blood cell count in secretions, before treatment ([3]; patients with obtainable secretions, start value): 16.8
mean symptom score, before treatment ([3]; start value of the group): 21.0
